Drawing on PubChem BioAssay (NCI), this text covers GI50 and TGI for five molecules.

Holding throughout (test): DTP human tumour cell line panel, 48 h
Test [1] deals with BT-549 breast.
The subject of test [2] is HCT-15 colon.
Test [3] relates to HOP-62 NSCLC.
Test [4] has as its system HT29 colon.
In test [5] the test system is IGROV1 ovarian.
Test [6] has as its system LOX IMVI melanoma.
Test [7] concerns NCI-H226 lung.
The subject of test [8] is RPMI-8226 leukemia.
Test [9] relates to SK-MEL-2 melanoma.
The test system of test [10] is U251 CNS.

By GI50 is commonly meant the concentration giving 50% growth inhibition. The TGI is the concentration at which net growth stops. A higher TGI goes with lower sensitivity of the cells.

Each structure is given as a SMILES string. Several values for one entry are separate records, joined by “and”; a condition that tells them apart may be missing. Identical values can stand only once.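 Step 1: Grow cells in 96-well plates. Step 2: Expose to compound for 48 hours at 5 concentrations. Step 3: Interpolate endpoints linearly; if unreached, use highest concentration. Here, GI50 denotes the concentration required for 50% inhibition of growth. The concentration for full growth arrest is given as TGI.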

Turning to `CCCCOc1ccc(/C=N/Nc2cc(C)nc3ccc(Cl)cc23)cc1`, the GI50 is 1.76 µM in test [1]; 1.35 µM in test [2]; 1.62 µM in test [3]; 1.24 µM in [4]; 1.93 µM in test [5]; 1.69 µM in test [6]. The GI50 was 1.63 µM in test [7], 1.92 µM in [8], 1.85 µM in test [9] and 1.72 µM in [10]. Also, the TGI was determined as 3.43 µM in test [1]; 2.74 µM in [2]; 3.28 µM in test [3]; 2.61 µM in test [4]; 3.63 µM in [5]; 3.09 µM in test [6]. The total growth inhibition concentration (TGI) in [7] came out at 3.41 µM; in [8], 4.53 µM; in test [9] it was 3.43 µM; in test [10], 3.19 µM.
In the case of `COc1cc(C2c3cc4c(cc3[C@@H](Nc3ccc(N)cc3)C3COC(=O)[C@H]23)OCO4)cc(OC)c1O` (stereo partly specified), the TGI is 8.5 µM in [1]; 22.6 µM in test [2]; 0.865 µM and 2.5 µM in [3]; 54 µM in test [4]; 16.4 µM in [5]; 6.48 µM in test [6]. Besides, the TGI in test [7] was 0.868 µM and 4.7 µM; in test [8], 12 µM; in test [9] it was 18.9 µM; in test [10] it was 4.2 µM. Further, the GI50 in [7] is 0.336 µM.
Take `CC(=O)N1CCN(CCOc2ccc(C3CCN(C4=Nn5c(nnc5C(F)(F)F)CC4)CC3)cc2)CC1`: the GI50 is 26.2 µM in test [1]; 14 µM in test [2]; 11.5 µM in test [3]; 9.08 µM in test [4]; 17.4 µM in [5]; 11.4 µM in test [6]. The GI50 in [7] was 34.8 µM; in test [8], 4.74 µM; in test [9], 33.7 µM; in [10], 47.9 µM. In addition, the TGI in test [1], in [2], in [3], in test [4], in test [5] and in [6] was more than 100 µM each time. Moreover, the TGI in test [7] was more than 100 µM; in test [8], 79.7 µM; in test [9], more than 100 µM; in test [10], more than 100 µM.
With `CCCn1c(N)c(C(=O)CNc2ccc(I)cc2)c(=O)[nH]c1=O`, the GI50 in [1] is more than 64.4 µM; in [2] it was 0.264 µM; in test [3], 9.98 µM; in [4] it was 1.23 µM; in test [5], 18 µM; in [6] it was 0.653 µM. Moreover, the GI50 in [7] was 12.9 µM; in [8], 0.51 µM; in test [9] it was more than 100 µM; in test [10], 0.761 µM. The TGI in test [1], in test [2], in test [3], in test [4], in test [5] and in test [6] was more than 100 µM throughout. For the same molecule, the TGI in test [7] is more than 100 µM; in test [8] it was more than 100 µM; in test [9], more than 100 µM; in test [10] it was more than 48.9 µM.
For the molecule `Cn1ncc(-c2ccc3c(=O)[nH]nc(CN)c3c2)c1-c1c(F)cc2ccccc2c1C#N`, the GI50 in [1] was 7.15 µM; in test [2], 4.92 µM; in [3], 6.31 µM; in test [4], 3.34 µM; in [5], 4.63 µM; in test [6], 1.32 µM. For the same molecule, the GI50 in test [7] was 7.69 µM; in [8] it was 4.78 µM; in test [9], 4.63 µM; in test [10], 5.36 µM. Moreover, the TGI amounted to 20.2 µM in test [1]; 19.1 µM in [2]; 20.3 µM in test [3]; 14.5 µM in test [4]; 19.7 µM in test [5]; 4.11 µM in test [6]. In addition, the TGI in test [7] worked out at 24.3 µM; in [8], 27.4 µM; in [9], 16.3 µM; in [10] it was 17.9 µM.
